Experimental data published in patent US20250288589A1, “PYRIDOPYRIMIDINES AND METHODS OF THEIR USE” (Kineta, Inc., priority 2021, published 2025).

biological target: T1, full-length human PIKFYVE (Homo sapiens, UniProt Q9Y2I7, L932S/Q1183K/Q995L/S1033A/S696N/T998S); experiment: PIKfyve biochemical assay (ADP-Glo Kinase assay, Carna Biosciences); conditions: GST-PIKFYVE, 10 μM to 3 nM in duplicate, read-out: hPIKfyve IC50
T1 construct: A full-length human PIKFYVE [1-2098(end) amino acids and S696N, L932S, Q995L, T998S, S1033A and Q1183K; purchased Carna Biosciences; host or cells: baculovirus expression system
Text: (§1) PIKfyve Biochemical Assay. The biochemical PIKFyve inhibition assays were run by Carna Biosciences according to proprietary methodology based on the Promega ADP-Glo™ Kinase assay. A full-length human PIKFYVE [1-2098(end) amino acids and S696N, L932S, Q995L, T998S, S1033A and Q1183K of the protein having the sequence set forth in NCBI Reference Sequence No. NP_055855.2] was expressed as N-terminal GST-fusion protein (265 kDa) using baculovirus expression system. GST-PIKFYVE was purified by using glutathione sepharose chromatography and used in an ADP-Glo™ Kinase assay (Promega). Reactions were set up by adding the test compound solution, substrate solution, ATP solution and kinase solution, each at 4× final concentrations. Reactions were prepared with assay buffer (50 mM MOPS, 1 mM DTT, pH7.2), mixed, and incubated in black 384 well polystyrene plates for 1 hour at room temperature. ADP-Glo™ reagent was then added for 40 minutes, followed by kinase detection reagent for an additional 40 minutes. The kinase activity was evaluated by detecting relative light units on a luminescence plate reader. Samples were run in duplicate from 10 μM to 3 nM. […] IC50 values were calculated from concentration vs % inhibition curves by fitting to a four-parameter logistic curve.
as §1, with “The” for “PIKfyve Biochemical Assay. The”, “accession number” for “the protein having the sequence set forth in NCBI Reference Sequence No.”, “uM” for “μM”

T1 sequence (Q9Y2I7 whole entry S696N/L932S/Q995L/T998S/S1033A/Q1183K): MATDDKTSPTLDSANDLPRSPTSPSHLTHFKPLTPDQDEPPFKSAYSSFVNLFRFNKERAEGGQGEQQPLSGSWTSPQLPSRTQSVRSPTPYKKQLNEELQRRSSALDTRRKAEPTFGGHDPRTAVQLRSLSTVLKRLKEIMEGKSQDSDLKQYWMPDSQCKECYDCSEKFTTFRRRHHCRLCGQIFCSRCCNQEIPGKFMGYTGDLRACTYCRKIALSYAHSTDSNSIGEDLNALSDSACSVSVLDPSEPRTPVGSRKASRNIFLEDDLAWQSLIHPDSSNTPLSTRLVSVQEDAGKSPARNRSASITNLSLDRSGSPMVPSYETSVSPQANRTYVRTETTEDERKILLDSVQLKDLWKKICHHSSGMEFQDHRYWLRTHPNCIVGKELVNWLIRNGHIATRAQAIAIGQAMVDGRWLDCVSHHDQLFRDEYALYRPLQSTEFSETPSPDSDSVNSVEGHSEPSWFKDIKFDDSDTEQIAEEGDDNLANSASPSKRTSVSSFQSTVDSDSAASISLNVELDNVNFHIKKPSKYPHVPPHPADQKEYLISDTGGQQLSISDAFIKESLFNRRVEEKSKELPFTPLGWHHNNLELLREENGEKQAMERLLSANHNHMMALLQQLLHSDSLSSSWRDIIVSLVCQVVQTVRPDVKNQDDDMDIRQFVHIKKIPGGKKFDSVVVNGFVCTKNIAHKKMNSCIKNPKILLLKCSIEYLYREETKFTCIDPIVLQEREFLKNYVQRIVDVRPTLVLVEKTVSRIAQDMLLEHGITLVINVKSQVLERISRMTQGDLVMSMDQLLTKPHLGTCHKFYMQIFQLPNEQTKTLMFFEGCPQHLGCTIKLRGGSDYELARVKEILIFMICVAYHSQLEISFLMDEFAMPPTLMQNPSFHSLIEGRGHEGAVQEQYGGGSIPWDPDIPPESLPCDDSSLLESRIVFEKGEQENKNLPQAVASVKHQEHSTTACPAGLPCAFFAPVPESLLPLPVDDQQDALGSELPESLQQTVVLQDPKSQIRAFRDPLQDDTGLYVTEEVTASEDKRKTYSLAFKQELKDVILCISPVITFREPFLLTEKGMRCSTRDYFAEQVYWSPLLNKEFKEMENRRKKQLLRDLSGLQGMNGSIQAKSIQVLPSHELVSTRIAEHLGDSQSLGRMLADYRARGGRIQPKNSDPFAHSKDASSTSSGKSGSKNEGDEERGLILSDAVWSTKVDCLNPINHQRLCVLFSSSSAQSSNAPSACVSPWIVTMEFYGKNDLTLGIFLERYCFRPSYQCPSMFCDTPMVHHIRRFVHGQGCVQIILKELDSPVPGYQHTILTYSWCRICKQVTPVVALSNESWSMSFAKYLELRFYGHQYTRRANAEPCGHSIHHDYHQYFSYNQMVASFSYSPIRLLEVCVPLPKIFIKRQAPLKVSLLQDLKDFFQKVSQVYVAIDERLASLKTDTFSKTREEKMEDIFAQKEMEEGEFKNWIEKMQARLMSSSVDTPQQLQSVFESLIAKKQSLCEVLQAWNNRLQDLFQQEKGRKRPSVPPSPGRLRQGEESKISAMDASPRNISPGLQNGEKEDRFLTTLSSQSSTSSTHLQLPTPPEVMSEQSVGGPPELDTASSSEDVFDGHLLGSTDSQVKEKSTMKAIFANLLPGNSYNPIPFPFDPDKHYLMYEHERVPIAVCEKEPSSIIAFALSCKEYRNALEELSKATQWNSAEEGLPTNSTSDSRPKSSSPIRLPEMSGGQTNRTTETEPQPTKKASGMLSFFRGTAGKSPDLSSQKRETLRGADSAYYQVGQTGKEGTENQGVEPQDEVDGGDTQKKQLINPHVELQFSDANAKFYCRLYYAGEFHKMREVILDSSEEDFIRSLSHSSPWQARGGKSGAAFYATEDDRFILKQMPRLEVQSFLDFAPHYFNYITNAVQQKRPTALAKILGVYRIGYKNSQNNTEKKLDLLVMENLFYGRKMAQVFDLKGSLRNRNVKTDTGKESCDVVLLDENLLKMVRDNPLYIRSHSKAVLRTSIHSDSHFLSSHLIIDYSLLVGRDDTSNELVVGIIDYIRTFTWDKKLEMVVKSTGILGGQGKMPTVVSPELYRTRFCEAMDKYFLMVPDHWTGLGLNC

`c1cncc(-c2ccn(-c3nc(N4CCOCC4)c4ncc(-c5ccc6c(c5)OCCO6)cc4n3)n2)c1` [Compound 49, 4-(7-(2,3-dihydrobenzo[b][1,4]dioxin-6-yl)-2-(3-(pyridin-3-yl)-1H-pyrazol-1-yl)pyrido[3,2-d]pyrimidin-4-yl)morpholine] was tested. Which IC50 did it give?
The IC50 was 1 to 10 µM.

For `c1ncc(-c2ccn(-c3nc(N4CCOCC4)c4ncc(C5CCOCC5)cc4n3)n2)cn1` [Compound 50, 4-[2-(3-pyrimidin-5-ylpyrazol-1-yl)-7-tetrahydropyran-4-yl-pyrido[3,2-d]pyrimidin-4-yl]morpholine], which IC50 is on record?
The IC50 was over 10 µM.

Which IC50 does the source give for `c1cc(-c2ccn(-c3nc(N4CCOCC4)c4ncc(C5CCOCC5)cc4n3)n2)ccn1` [Compound 51, 4-[2-[3-(4-pyridyl)pyrazol-1-yl]-7-tetrahydropyran-4-yl-pyrido[3,2-d]pyrimidin-4-yl]morpholine] here?
The IC50 was 1 to 10 µM.

Which IC50 does the source give for `c1cncc(-c2ccn(-c3nc(N4CCOCC4)c4ncc(C5CCOCC5)cc4n3)n2)c1` [Compound 52, 4-[2-[3-(3-pyridyl)pyrazol-1-yl]-7-tetrahydropyran-4-yl-pyrido[3,2-d]pyrimidin-4-yl]morpholine] here?
Its IC50 is 1 to 10 µM.

Which IC50 does the source give for `c1cc(-c2ccn(-c3nc(N4CCOCC4)c4ncc(C5CCOCC5)cc4n3)n2)ncn1` [Compound 53, 4-[2-(3-pyrimidin-4-ylpyrazol-1-yl)-7-tetrahydropyran-4-yl-pyrido[3,2-d]pyrimidin-4-yl]morpholine] here?
The IC50 was over 10 µM.

For `COc1cnc2c(N3CCOCC3)nc(-n3ccc(-c4cccc(C)c4)n3)nc2c1` [Compound 54, 4-(7-methoxy-2-(3-m-tolyl-1H-pyrazol-1-yl)pyrido[3,2-d]pyrimidin-4-yl)morpholine], which IC50 is on record?
Its IC50 is under 0.01 µM.

How did the IC50 turn out when `c1ccc(-c2ccn(-c3nc(N4CCOCC4)c4ncc(C5CC5)cc4n3)n2)cc1` [Compound 55, 4-[7-cyclopropyl-2-(3-phenylpyrazol-1-yl)pyrido[3,2-d]pyrimidin-4-yl]morpholine] was run?
Its IC50 is 0.01 to 0.1 µM.

How did the IC50 turn out when `CN1CCN(c2cnc3c(N4CCOCC4)nc(-n4cc(-c5ccccc5)cn4)nc3c2)C(=O)C1` [Compound 56, 4-methyl-1-(4-morpholino-2-(4-phenyl-1H-pyrazol-1-yl)pyrido[3,2-d]pyrimidin-7-yl)piperazin-2-one] was run?
The IC50 was 0.01 to 0.1 µM.

With `CC(C)(C)OC(=O)N1CCC(Cc2ccn(-c3nc(N4CCOCC4)c4ncccc4n3)n2)C1` (stereo not drawn) [Compound 63, tert-butyl 3-[[1-(4-morpholinopyrido[3,2-d]pyrimidin-2-yl)pyrazol-3-yl]methyl]pyrrolidine-1-carboxylate] as the molecule, how does the IC50 read?
The IC50 was 1 to 10 µM.

How did the IC50 turn out when `c1cnc2c(N3CCOCC3)nc(-n3ccc(CC4CCNC4)n3)nc2c1` (stereo not drawn) [Compound 64, 4-[2-[3-(pyrrolidin-3-ylmethyl)pyrazol-1-yl]pyrido[3,2-d]pyrimidin-4-yl]morpholine] was run?
The IC50 was 1 to 10 µM.

Which IC50 does the source give for `COc1cncc(-c2cnc3c(N4CCOCC4)nc(-c4ccn(CC(F)(F)F)n4)nc3c2)c1` [Compound 65, 4-(7-(5-methoxypyridin-3-yl)-2-(1-(2,2,2-trifluoroethyl)-1H-pyrazol-3-yl)pyrido[3,2-d]pyrimidin-4-yl)morpholine] here?
The IC50 was 1 to 10 µM.

`FC(F)(F)Cn1ccc(-c2nc(N3CCOCC3)c3ncccc3n2)n1` [Compound 68, 4-(2-(1-(2,2,2-trifluoroethyl)-1H-pyrazol-3-yl)pyrido[3,2-d]pyrimidin-4-yl)morpholine] was tested. Which IC50 did it give?
The IC50 was 1 to 10 µM.

Which IC50 does the source give for `c1cnc2c(N3CCOCC3)nc(-c3n[nH]c4ccccc34)nc2c1` [Compound 69, 4-[2-(1H-indazol-3-yl)pyrido[3,2-d]pyrimidin-4-yl]morpholine] here?
The IC50 was 1 to 10 µM.

For `Cc1cccc(-c2cc(O)n(-c3nc(N4CCOCC4)c4ncc(-c5ccoc5)cc4n3)n2)c1` [Compound 70, 1-(7-(furan-3-yl)-4-morpholinopyrido[3,2-d]pyrimidin-2-yl)-3-m-tolyl-1H-pyrazol-5-ol], which IC50 is on record?
Its IC50 is under 0.01 µM.

With `c1ccc(-c2cn(-c3nc(N4CCOCC4)c4ncccc4n3)nn2)cc1` [Compound 74, 4-(2-(4-phenyl-1H-1,2,3-triazol-1-yl)pyrido[3,2-d]pyrimidin-4-yl)morpholine] as the molecule, how does the IC50 read?
Its IC50 is 0.1 to 1 µM.
